Test: Human HepG2 cell viability assay in 384 well format
Assay type: toxicity, cell-based
Parameters: dose 125 nL, time 70.5 hour; concentration not given beside the values
Conditions: HepG2 cells, read-out: Inhibition

## Cc1cccc(CN2CCc3onc(CN(C)C)c3C2)n1
  cytotoxicity at 70.5 h: 0.439%

## NC(=O)c1nc2c(s1)CCN(C(=O)Nc1ccccc1)CC2
  cytotoxicity at 70.5 h: 9.18%

## O=C(c1cscn1)N1CCc2ncnc(-c3ccncc3)c2CC1
  cytotoxicity at 70.5 h: -2.35%

## O=C1C[C@H]2[C@H](CCN2C(=O)c2ccno2)N1CC1CC1
  cytotoxicity at 70.5 h: -4.81%

## CCN(CC)C(=O)c1nc2c(s1)CCN(C(=O)Nc1ccccc1)CC2
  cytotoxicity at 70.5 h: 5.97%

## O=C1N(Cc2cccc(F)c2)CCC12CCCN(c1ncc(F)cn1)C2 (stereo unspecified)
  cytotoxicity at 70.5 h: -5.64%

## CS(=O)(=O)NC[C@H]1OC[C@@H]2CN(Cc3cccnc3)CC[C@@H]21
  cytotoxicity at 70.5 h: -2.64%

## CN(C)Cc1noc2c1CN(Cc1ccc[nH]1)CC2
  cytotoxicity at 70.5 h: -1.45%

## CC(C)n1nc(CN2CCCC2=O)c2c1CN(C(=O)c1ccc[nH]1)C2
  cytotoxicity at 70.5 h: -5.63%

## Cc1nc(Cn2c3c(ccc2=O)CC(N)CC3)cs1 (stereo unspecified)
  cytotoxicity at 70.5 h: 4.04%

## Cc1noc([C@H]2CC[C@@H]3[C@@H](CCN3c3ncccn3)O2)n1
  cytotoxicity at 70.5 h: -6.01%

## O=C1CCCN1Cc1nnc2n1CCN(Cc1ccco1)C2
  cytotoxicity at 70.5 h: 2.02%

## CN1C(=O)C(c2cccnc2)CC12CCN(Cc1nccs1)CC2 (stereo unspecified)
  cytotoxicity at 70.5 h: 1.71%

## CCO[C@H]1CC[C@H]2[C@H]1OCCN2C(=O)c1nn(C)c2ccccc12
  cytotoxicity at 70.5 h: 0.53%

## COCCN1CCC2(CC1)CC(c1cccnc1)C(=O)N2C (stereo unspecified)
  cytotoxicity at 70.5 h: 1.48%

## CO[C@@H]1CC[C@H]2[C@H]1OCCN2C(=O)c1nn(C)c2ccccc12
  cytotoxicity at 70.5 h: 20.6%

## CN(C)C1CCN(C(=O)c2n[nH]c3c2CCN(CC2CCC2)C3)CC1
  cytotoxicity at 70.5 h: 14.2%

## CC(=O)N1CCC2(CCCN(Cc3ccc(Cl)c(C(F)(F)F)c3)C2)C1 (stereo unspecified)
  cytotoxicity at 70.5 h: -5.25%

## O=C1CC2(CCN(Cc3ccoc3)C2)CN1c1ccc2c(c1)OCO2 (stereo unspecified)
  cytotoxicity at 70.5 h: 3.34%

## COCC(=O)N1CC[C@@H](O)[C@@H]1Cc1ccccc1
  cytotoxicity at 70.5 h: 5.48%

## COCCC(=O)N1CCn2c(COCC3CC3)cnc2C1C (stereo unspecified)
  cytotoxicity at 70.5 h: -0.0494%

## CCn1cc2c(n1)C(COC)CN(C(=O)COc1ccccc1C)C2 (stereo unspecified)
  cytotoxicity at 70.5 h: -7.2%

## CC(C)NC(=O)N1C[C@H]2C[C@H](C(=O)NCc3ccccc3)[C@@H](C1)O2
  cytotoxicity at 70.5 h: -5.16%

## Cc1ncoc1C(=O)N1CCn2c(COCC3CC3)cnc2C1C (stereo unspecified)
  cytotoxicity at 70.5 h: 10.1%

## Cc1noc(C)c1C(=O)N1CC[C@H]2C[C@@H](c3ccncn3)O[C@@H]2C1
  cytotoxicity at 70.5 h: -5.05%

## O=C(C1CCOCC1)N1CC[C@H]2C[C@@H](c3ccncn3)O[C@@H]2C1
  cytotoxicity at 70.5 h: -8.58%

## Cn1cccc1C(=O)N1CCCC2(CCCN2Cc2cccnc2)C1 (stereo unspecified)
  cytotoxicity at 70.5 h: -5.57%

## COCCN1C(=O)C[C@@H]2[C@H]1CCN2C(=O)COc1ccccc1
  cytotoxicity at 70.5 h: -20.9%

## O=C(c1ccncc1)N1CCC2(CC1)CC(Oc1cccnc1)CO2 (stereo unspecified)
  cytotoxicity at 70.5 h: -14.5%

## O=C(CO)N1CCc2onc(Cn3cccn3)c2C1
  cytotoxicity at 70.5 h: -13.8%

## O=C(C1CC=CC1)N1CCC2(CC1)CN(Cc1ccccn1)CCO2
  cytotoxicity at 70.5 h: -4.02%

## COCCN1C[C@H]2[C@@H](C1)N(C(=O)COc1ccccc1)CC[C@H]2OC
  cytotoxicity at 70.5 h: -11.3%

## COCC1CC2(CCN(Cc3ccccn3)CC2)CN1C(C)C (stereo unspecified)
  cytotoxicity at 70.5 h: -7.51%

## O=C(c1cc(C2CC2)on1)N1CC[C@]2(C[C@H](Oc3cccnc3)CO2)C1
  cytotoxicity at 70.5 h: -16.2%

## COCCN1C[C@H]2[C@@H](C1)N(C(=O)c1cccs1)CC[C@H]2OC
  cytotoxicity at 70.5 h: -21.9%

## COCC(=O)N1C[C@@H]2OCCN(Cc3c(C)noc3C)[C@@H]2C1
  cytotoxicity at 70.5 h: -11.4%

## Cc1cc(CN2CC[C@H]3C[C@H](C(=O)N(C)C)O[C@@H]3C2)no1
  cytotoxicity at 70.5 h: -13.6%

## O=C(c1ccnnc1)N1C[C@@H](OCC2CCOCC2)[C@H]2OCCC[C@H]21
  cytotoxicity at 70.5 h: -12.9%

## Cc1ccc(N2CCC3(CCN(C(N)=O)CC3)CC2)nn1
  cytotoxicity at 70.5 h: -27.1%

## Cc1cncc(C(=O)N2Cc3ccccc3C3(CCN(C)CC3)C2)c1
  cytotoxicity at 70.5 h: -14.6%

## Cc1ccc(C(=O)N2C[C@H]3CCC[C@@]3(COCc3cccnc3)C2)s1
  cytotoxicity at 70.5 h: -12%

## C[C@H](O)CNc1cc(-c2cn[nH]c2)ncn1
  cytotoxicity at 70.5 h: 6.37%

## CC(C)(CO)Nc1cc(-c2ccncc2)ncn1
  cytotoxicity at 70.5 h: -2.83%

## CC(C)[C@@H](CO)Nc1cc(-c2cn[nH]c2)ncn1
  cytotoxicity at 70.5 h: 0.985%

## COc1cc(-c2cc(=O)[nH]cn2)cc(OC)c1OC
  cytotoxicity at 70.5 h: -5.45%

## COCCN1CC(=O)c2sc(NC(C)C)nc2C1
  cytotoxicity at 70.5 h: 2.05%

## Cc1ccc2c(c1)[C@@H](CC(=O)N1CCOCC1)CCO2
  cytotoxicity at 70.5 h: 0.54%

## OCCNc1nccc(-c2c[nH]nc2-c2ccncc2)n1
  cytotoxicity at 70.5 h: -2.75%

## OCCNc1nccc(-c2c[nH]nc2-c2cccnc2)n1
  cytotoxicity at 70.5 h: -3.73%

## Cc1[nH]c2ccccc2c1-c1ccnc(N[C@@H](C)CO)n1
  cytotoxicity at 70.5 h: -3.05%

## NC(=O)[C@H]1CCCN(c2nccc(-c3ccncc3)n2)C1
  cytotoxicity at 70.5 h: -0.804%

## CNc1nccc(-c2cnc3sc(C)c(C)n3c2=O)n1
  cytotoxicity at 70.5 h: 0.0839%

## O=c1[nH][nH]cc1-c1ccnc(NCCc2cccc(O)c2)n1
  cytotoxicity at 70.5 h: -7.19%

## Nc1ncc(-c2cccc(NC(=O)[C@@H]3CCCCN3)c2)cn1
  cytotoxicity at 70.5 h: -4.27%

## CC[C@@H](C)[C@@H](N)C(=O)Nc1cccc(-c2cnc(N)nc2)c1
  cytotoxicity at 70.5 h: -6%

## CNc1ncc(-c2ccnn2C2CCN(C(C)=O)CC2)cn1
  cytotoxicity at 70.5 h: -7.63%

## CN(C)c1nccc(NCc2cc(-c3cccs3)n[nH]2)n1
  cytotoxicity at 70.5 h: 4.36%

## CCCN(C)c1ncc2c(n1)N(C)CCN(CC1CC1)C2=O
  cytotoxicity at 70.5 h: -1.69%

## O=c1[nH]c(-c2ccncc2)ncc1-c1ccnc(NC2CC2)n1
  cytotoxicity at 70.5 h: 23.6%

## CCOC(=O)N1CCc2ccccc2C12CCNCC2
  cytotoxicity at 70.5 h: -2.47%

## O=C(C1CC1)N1CCc2ccccc2C12CCNCC2
  cytotoxicity at 70.5 h: -1.81%

## Cc1cccc(CN2CCc3onc(CO)c3C2)n1
  cytotoxicity at 70.5 h: 5.71%

## O=C1N(Cc2cccnc2)CCC12CCCN(c1ncc(F)cn1)C2 (stereo unspecified)
  cytotoxicity at 70.5 h: -3.96%

## O=C([C@@H]1CC[C@@H]2[C@@H](CCN2c2ccncn2)O1)N1CCCCO1
  cytotoxicity at 70.5 h: -0.768%

## Cn1ccc(C(=O)N2CCC3(CCN3c3ncccn3)C2)n1 (stereo unspecified)
  cytotoxicity at 70.5 h: -1.24%

## CCc1cnc(N2CC[C@H]3[C@@H]2CCC(=O)N3c2ccccc2)nc1
  cytotoxicity at 70.5 h: 14.1%

## c1csc(CN2C[C@H](OCC3CC3)[C@H]3COC[C@H]32)n1
  cytotoxicity at 70.5 h: -3.74%

## CN(C)C(=O)CN1CCOCC2(C1)CN(c1ncc(F)cn1)CCO2 (stereo unspecified)
  cytotoxicity at 70.5 h: -10.2%

## O=C1CC[C@H]2[C@H](CCN2c2ncccn2)N1c1ccccc1
  cytotoxicity at 70.5 h: -10.3%

## CN(C)C(=O)CN1CCOCC2(CCN(c3ncc(F)cn3)CC2)C1
  cytotoxicity at 70.5 h: -6.93%

## CN(C)C(=O)CO[C@@H]1CC[C@H]2[C@H]1OCCN2c1ncc(F)cn1
  cytotoxicity at 70.5 h: -6.35%

## Cc1noc([C@@H]2C[C@@H]3CCN(c4nnc(C)s4)C[C@H]3O2)n1
  cytotoxicity at 70.5 h: -11.6%

## Fc1cnc(N2CCO[C@H]3[C@H](OCC4CCOCC4)CC[C@@H]32)nc1
  cytotoxicity at 70.5 h: -9.91%

## Fc1cnc(N2C[C@@H](OCC3CCOCC3)[C@H]3OCCC[C@H]32)nc1
  cytotoxicity at 70.5 h: -7.94%

## Cc1noc([C@@H]2CC[C@@H]3[C@@H](CCN3c3nnc(C)s3)O2)n1
  cytotoxicity at 70.5 h: -8.18%

## Cc1cncc(C(=O)N2C[C@@H]3CN(S(C)(=O)=O)CCO[C@@H]3C2)c1
  cytotoxicity at 70.5 h: 19.6%

## CC(C)OCc1nn(C)c2c1CCN(CC1CC1)C2
  cytotoxicity at 70.5 h: -2.45%

## O=C(NC1CCC1)[C@H]1C[C@@H]2CN(CC3CC3)C[C@H]1O2
  cytotoxicity at 70.5 h: -0.535%

## CNC(=O)[C@@]12CCO[C@@H]1CCN(Cc1ccc3c(c1)OCO3)C2
  cytotoxicity at 70.5 h: 9.37%

## c1coc(CN2CCCn3c(nnc3Cn3cccc3)C2)c1
  cytotoxicity at 70.5 h: -3.91%

## O=C1CC2(CCN(CC3CC3)C2)CN1c1ccc2c(c1)OCO2 (stereo unspecified)
  cytotoxicity at 70.5 h: 3.77%

## CN(C)CC(=O)N1CCC2(CC(=O)N(c3cccc(C#N)c3)C2)C1 (stereo unspecified)
  cytotoxicity at 70.5 h: 4.59%

## O=C(NCCCN1CCOCC1)c1ccn(-c2ccc3ccccn23)n1
  cytotoxicity at 70.5 h: 23.5%

## N#Cc1cccc(N2CC3(CCN(C(=O)c4cccnc4)C3)CC2=O)c1 (stereo unspecified)
  cytotoxicity at 70.5 h: -0.309%

## O=C(C1=CCCCC1)N1CCC2(CC1)COC(COc1ccccn1)C2 (stereo unspecified)
  cytotoxicity at 70.5 h: -3.14%

## CCOCC1CC2(CCN(C(=O)c3ccccn3)CC2)CO1 (stereo unspecified)
  cytotoxicity at 70.5 h: -6.81%

## CN(C)CC(=O)N1C[C@H]2CCC[C@@]2(COc2ccccn2)C1
  cytotoxicity at 70.5 h: -16.4%

## c1cnn(Cc2nnc3n2CCCN(CC2CCOCC2)C3)c1
  cytotoxicity at 70.5 h: -2.91%

## CCS(=O)(=O)N1CCC2(CC1)CN(Cc1ccccn1)C(=O)CO2
  cytotoxicity at 70.5 h: -11.1%

## COCC1CN(Cc2ccc(OC)cc2)Cc2nn(C)cc21 (stereo unspecified)
  cytotoxicity at 70.5 h: 8.65%

## Cn1cc(CN2CCCC3(CCCN3S(C)(=O)=O)C2)cn1 (stereo unspecified)
  cytotoxicity at 70.5 h: -16.8%

## Cc1cnc(N2CCO[C@@H]3CC(COCc4cccnc4)C[C@H]32)nc1 (stereo partly specified)
  cytotoxicity at 70.5 h: -0.9%

## c1csc(CN2Cc3nc(CN4CCCC4)oc3C2)c1
  cytotoxicity at 70.5 h: -1.36%

## Cc1nc(Cn2c3c(ccc2=O)CC(NC(C)C)CC3)cs1 (stereo unspecified)
  cytotoxicity at 70.5 h: -9.3%

## Fc1cccc(CN2C[C@@H]3CN(c4ncccn4)C[C@@H]3C2)c1
  cytotoxicity at 70.5 h: -3.5%

## CCc1cnc(N2CC[C@H]3[C@@H]2CCC(=O)N3c2cccnc2)nc1
  cytotoxicity at 70.5 h: -7.03%

## CC(C)n1nc(CN2CCCC2)c2c1CN(CC1CC1)CC2
  cytotoxicity at 70.5 h: -1.54%

## Cc1cccc(CN2CCC3(CC2)CC(c2cccnc2)C(=O)N3C)n1 (stereo unspecified)
  cytotoxicity at 70.5 h: 15.6%

## c1ccc(OCC2C[C@@H]3[C@@H](C2)OCCN3CC2CCOCC2)nc1 (stereo partly specified)
  cytotoxicity at 70.5 h: -0.766%

## Cn1cc(CN2CCC3(CC2)CC(c2ccncc2)C(=O)N3)cn1 (stereo unspecified)
  cytotoxicity at 70.5 h: -10.1%

## c1cnc(N2CCC3(COCCN(CC4CC4)C3)C2)nc1 (stereo unspecified)
  cytotoxicity at 70.5 h: -21.1%

## CCc1ccc(CN2CCC3(CC2)NC(=O)CC3c2ccncc2)o1 (stereo unspecified)
  cytotoxicity at 70.5 h: -23%

## O=C(Nc1cccnc1)[C@@H]1C[C@H]2OCC[C@H]2N(Cc2ccsc2)C1
  cytotoxicity at 70.5 h: 0.225%

## CN(C)CCN1CCCC12CCN(C(=O)c1cccn1C)CC2
  cytotoxicity at 70.5 h: -15.1%

## CN1CC(=O)N(c2ccccc2)CC12CCN(CC1CC1)C2 (stereo unspecified)
  cytotoxicity at 70.5 h: -26.6%

## CN(C)CCOCC1CN(Cc2ccsc2)Cc2ccnn2C1 (stereo unspecified)
  cytotoxicity at 70.5 h: 3.88%
